According to article PMC6985109, “Cellular apoptosis and necrosis as therapeutic targets for novel Eugenol Tosylate Congeners against Candida albicans” (Scientific Reports, 2020):
Converted amounts (≈) assume the structure as drawn. Read-outs that look alike come from different tables or passages of the source.

Key:
Candida albicans 4106 = assay: Broth microdilution antifungal susceptibility (MIC/MFC); assay type: cell-based; settings: strain 4106, FLC resistant; for MIC: 37 °C, 24 h
Procedure: (§1) In this study, 10 clinical Candida albicans isolates, comprising of 5 fluconazole susceptible and 5 fluconazole resistant, were used. C. albicans SC5314 was also used as a control laboratory strain. Clinical strains used in this study were stored at −80 °C supplemented with 20% glycerol in the Department of Clinical Microbiology and Infectious Diseases, University of the Witwatersrand, Johannesburg and were previously collected under the ethical clearance number M000402, obtained from the Human Research Ethics Committee, University of the Witwatersrand. For experimental purpose each strain from glycerol stock was recovered on Sabouraud Dextrose (SDA) agar plates at 37 °C for 24 h.
(§2) Minimum Inhibitory Concentration (MIC) and Minimum Fungicidal Concentrations (MFC) of all newly synthesized eugenol-tosylate congeners (ETC-1–ETC-7) against C. albicans strains were determined by broth microdilution assay in accordance with the approved guidelines described by Clinical and Laboratory Standards Institute (CLSI) guidelines M27-A[38]. The test compounds were prepared in 1% DMSO to a stock concentration of 8192 µg/ml. Two-fold dilutions of test compounds (100 µL) were prepared in 96-well flat-bottom microtiter plates, inoculated with 100 µl of inoculum (1 × 10^6 cells/mL) and incubated at 37 °C for 24 hours. In every set of experiment, positive control (fluconazole), negative vehicle control (1% DMSO) and culture control (media and cells only) were included. MIC’s were determined visibly as the lowest concentration of the test compounds that inhibited growth of test organism. To determine MFC, each well without visible growth was sub-cultured onto agar plates. Concentration in the first well with no growth on plate was taken as MFC. […] The experiment was performed in triplicate to validate the results.

Candida albicans 4122 = assay: as above; assay type: cell-based; settings: strain 4122, FLC resistant; for MIC: 37 °C, 24 h
Procedure: as §1, §2

Candida albicans 4135 = assay: as above; assay type: cell-based; settings: strain 4135, FLC resistant; for MIC: 37 °C, 24 h
Procedure: as §1, §2

Candida albicans 4175 = assay: as above; assay type: cell-based
Procedure: as §1, §2

Candida albicans 4179 = assay: as above; assay type: cell-based; settings: strain 4179, FLC susceptible; for MIC: 37 °C, 24 h
Procedure: as §1, §2

Candida albicans 4180 = assay: as above; assay type: cell-based; settings: strain 4180, FLC susceptible; for MIC: 37 °C, 24 h
Procedure: as §1, §2

Candida albicans 4324 = assay: as above; assay type: cell-based; settings: strain 4324, FLC resistant; for MIC: 37 °C, 24 h
Procedure: as §1, §2

Candida albicans 4563 = assay: as above; assay type: cell-based; settings: strain 4563, FLC susceptible; for MIC: 37 °C, 24 h
Procedure: as §1, §2

Candida albicans 4576 = assay: as above; assay type: cell-based; settings: strain 4576, FLC susceptible; for MIC: 37 °C, 24 h
Procedure: as §1, §2

Candida albicans 5112 = assay: as above; assay type: cell-based; settings: strain 5112, FLC resistant; for MIC: 37 °C, 24 h
Procedure: as §1, §2

Candida albicans SC5314 = assay: as above; assay type: cell-based; settings: SC5314, FLC susceptible; for MIC: 37 °C, 24 h
Procedure: as §1, §2

[1] = system: fluconazole susceptible and resistant C. albicans strains; assay: Broth microdilution antifungal susceptibility, ranges over strains; assay type: cell-based; settings: Candida albicans
Procedure: as §1, §2

[2] = system: C. albicans 4175, C. albicans 5112 and C. albicans SC5314; assay: FITC annexin V/PI staining flow cytometry, ranges over three strains; assay type: cell-based, Candida albicans; settings: 250 μmol/L, positive control
Procedure: (§3) To study the effect of test compounds on apoptotic markers protoplasts were prepared as described previously, with modifications. Briefly, mid-exponential phase cells were harvested and exposed to various concentrations of test compounds (0.5 × MIC, 1 × MIC and 2×MIC) for 3 h. The cells were then washed twice with protoplast buffer- I (1 M sorbitol, 50 mM tris base, 10 mM MgCl2 and 30 mM DTT) and incubated in the same buffer for 15 minutes at 25 °C, followed by centrifugation at 1500 rpm for 5 minutes. Supernatant was removed and cells were incubated with buffer- II (1 M sorbitol, 50 mM tris base, 10 mM MgCl2 and 1 mM DTT) supplemented with lyticase enzyme (≥1 µg/mL) used to digest the cell wall for 1 h at 25 °C. Buffer- II were removed by centrifugation and then cells were incubated with buffer- III (1 M sorbitol, 50 mM tris base and 10 mM MgCl2) for 20 minutes at room temperature. After the incubation cells were again centrifuged at 1500 rpm for 5 minutes and supernatant was discarded. Protoplasts then finally washed once with PBS and re-suspended in the same for further use. In each washing steps the volume of these protoplast buffers were 5 times to cell volume with pH 7.4.
This assay was used to identify early apoptosis by detecting movement of phosphatidylserine (PS) from the inner to the outer leaflet of plasma membrane. FITC annexin V Apoptosis Detection Kit I (BD Biosciences, CA, USA) was used according to the manufacturer’s instructions. Protoplasts of C. albicans cells treated with different concentrations of the test compounds, as mentioned in above section, were resuspended in 1X annexin V binding buffer ([…]) at a concentration of 1 × 10^6 cells per ml. To the 100 µl of this solution, 5 µl each of FITC annexin V and propidium iodide (PI) was added. Tubes were gently vortexed and incubated for 15 minutes at 25 °C in the dark. After incubation, 400 µl of 1X annexin V binding buffer was added to each tube and analyzed using the BD LSRFortessa Flow cytometer (Becton Dickinson, NJ, USA). The cell populations in four different quadrants of a quadrant dot plot were analyzed and interpreted as; Q1: necrosis (annexin V^−/PI^+), Q2: late apoptosis (annexin V^+/PI^+), Q3: early apoptosis (annexin V^+/PI^−) and Q4: viable cells (annexin V^−/PI^−), by using software FlowJo_V10.

[3] = system: C. albicans 4175, C. albicans 5112 and C. albicans SC5314; assay: TUNEL assay for DNA damage; assay type: cell-based, Candida albicans; settings: 250 μmol/L, positive control
Procedure: as §3, with “Protoplasts then finally washed once with PBS and re-suspended in the same for further use. In each washing steps the volume of these protoplast buffers were 5 times to cell volume with pH 7.4.” left out
TUNEL assay was used to detect the DNA damage, a hallmark for late stages of apoptosis. […] Slides were examined by fluorescence microscopy using Zeiss Laser Scanning Confocal Microscope (LSM) 780 (Carl Zeiss Microscopy, Jena, Germany) with an excitation wavelength of 495 nm and emission wavelength of 519 nm. […] Images were further analyzed by using software ImageJ.

horse red blood cells = assay: Cytotoxicity by haemolytic assay; assay type: cell-based
Procedure: The cytotoxicity of the test compounds was determined on horse red blood cells (NHLS, Johannesburg, South Africa) by testing the haemolytic activity of these compounds using the method described previously, with some modifications. Briefly, in a sterile 15 ml falcon tube 5 ml of horse blood was centrifuged at 2000 × rpm for 10 minutes. The supernatant was discarded, and the cell pellet was washed three times with chilled PBS solution. The final pellet was used to yield a 10% RBC suspension with chilled PBS. The 10% suspension were further diluted to 1:10 in PBS, then 100 µl of this suspension was added to different concentration of test compounds (0.5 × MIC, 1 × MIC and 2 × MIC) in 1.5 ml tubes. The tubes were then incubated for 60 minutes at 37 °C followed by centrifugation at 2000 × rpm for 10 minutes. From each tube, 200 µl of the supernatant was transferred to a flat-bottomed 96-well microtiter plate and absorbance was monitored at 450 nm spectrophotometrically with an iMark microplate reader (Bio-Rad laboratories, CA, USA). Triton X-100 (1%) and PBS were used as positive and negative controls respectively. The percentage of haemolysis was calculated by the following equation: %haemolysis=A450oftestcompoundtreatedsample−A450ofbuffertreatedsample/A450of1%TritonX−100treatedsample−A450ofbuffertreatedsample×100%

[4] = Candida albicans, strain 4175, FLC susceptible
[5] = Candida albicans, strain 4175, FLC susceptible, 37 °C, 24 h, read-out: MIC
[6] = over the tested C. albicans strains

In the case of `OC(Cn1cncn1)(Cn1cncn1)c1ccc(F)cc1F` [FLC, fluconazole, reference compound], the MIC (Candida albicans 4106) is reported as 8 µg/mL (≈ 26.1 µM), the MIC (Candida albicans 4122) is reported as 32 µg/mL (≈ 104 µM) and the MIC (Candida albicans 4135) is reported as 32 µg/mL (≈ 104 µM). The MIC (Candida albicans 4175; Candida albicans, 4175, 24 h) was 0.125 µg/mL (≈ 0.408 µM), the MIC (Candida albicans 4179) was 0.25 µg/mL (≈ 0.816 µM) and the MIC (Candida albicans 4180) was 0.25 µg/mL (≈ 0.816 µM). It also gave an MIC (Candida albicans 4324) of 16 µg/mL (≈ 52.2 µM), an MIC (Candida albicans 4563) of 0.25 µg/mL (≈ 0.816 µM) and an MIC (Candida albicans 4576) of 0.25 µg/mL (≈ 0.816 µM). The MIC (Candida albicans 5112) was 64 µg/mL (≈ 209 µM), the MIC (Candida albicans SC5314) was 0.25 µg/mL (≈ 0.816 µM) and the MIC ([1]; fluconazole resistant strains, range) was 8 to 64 µg/mL (≈ 26.1 to 209 µM). The MIC ([1]; fluconazole susceptible strains, range) was 0.125 to 0.25 µg/mL (≈ 0.408 to 0.816 µM).

For `OO` [H2O2, reference compound], the early apoptosis [2] was 32–33%, the late apoptosis [2] was 50–51% and the necrosis [2] was 6–7%. The “TUNEL green fluorescence (late apoptotic cells)” value [3] was “increased green fluorescence”.

With Triton X-100 [reference compound] the lysis (horse red blood cells) was 100%.

Work on `C=CCc1ccc(OS(=O)(=O)c2ccccc2)c(OC)c1` [ETC-2, 2-methoxy-4-(prop-2-en-1-yl)-phenylbenzenesulfonate] yielded an MFC (Candida albicans 4106) of 256 µg/mL (≈ 841 µM), an MIC (Candida albicans 4106) of 64 µg/mL (≈ 210 µM) and an MFC (Candida albicans 4122) of 512 µg/mL (≈ 1680 µM). The MIC (Candida albicans 4122) was 256 µg/mL (≈ 841 µM), the MFC (Candida albicans 4135) was 512 µg/mL (≈ 1680 µM) and the MIC (Candida albicans 4135) was 128 µg/mL (≈ 421 µM). The MFC (Candida albicans 4175; [4]) was 64 µg/mL (≈ 210 µM), the MIC (Candida albicans 4175; [5]) was 32 µg/mL (≈ 105 µM) and the MFC (Candida albicans 4179) was 256 µg/mL (≈ 841 µM). It also gave an MIC (Candida albicans 4179) of 128 µg/mL (≈ 421 µM), an MFC (Candida albicans 4180) of 256 µg/mL (≈ 841 µM) and an MIC (Candida albicans 4180) of 64 µg/mL (≈ 210 µM). It also gave an MFC (Candida albicans 4324) of 256 µg/mL (≈ 841 µM), an MIC (Candida albicans 4324) of 128 µg/mL (≈ 421 µM) and an MFC (Candida albicans 4563) of 512 µg/mL (≈ 1680 µM). It also gave an MIC (Candida albicans 4563) of 256 µg/mL (≈ 841 µM), an MFC (Candida albicans 4576) of 256 µg/mL (≈ 841 µM) and an MIC (Candida albicans 4576) of 128 µg/mL (≈ 421 µM). The MFC (Candida albicans 5112) was 512 µg/mL (≈ 1680 µM), the MIC (Candida albicans 5112) was 256 µg/mL (≈ 841 µM) and the MFC (Candida albicans SC5314) was 64 µg/mL (≈ 210 µM). The MIC (Candida albicans SC5314) was 32 µg/mL (≈ 105 µM).

`C=CCc1ccc(O)c(OC)c1` [EUG, 2-methoxy-4-(prop-2-en-1-yl)phenol, reference compound] was tested, and the MFC (Candida albicans 4106) was 1000 µg/mL (≈ 6090 µM), the MIC (Candida albicans 4106) was 500 µg/mL (≈ 3040 µM) and the MFC (Candida albicans 4122) was 1000 µg/mL (≈ 6090 µM). For the same compound, the MIC (Candida albicans 4122) was 500 µg/mL (≈ 3040 µM), the MFC (Candida albicans 4135) was 1000 µg/mL (≈ 6090 µM) and the MIC (Candida albicans 4135) was 500 µg/mL (≈ 3040 µM). The MFC (Candida albicans 4175; [4]) was 1000 µg/mL (≈ 6090 µM), the MIC (Candida albicans 4175; [5]) was 500 µg/mL (≈ 3040 µM) and the MFC (Candida albicans 4179) was 1000 µg/mL (≈ 6090 µM). For the same compound, the MIC (Candida albicans 4179) was 500 µg/mL (≈ 3040 µM), the MFC (Candida albicans 4180) was 1000 µg/mL (≈ 6090 µM) and the MIC (Candida albicans 4180) was 500 µg/mL (≈ 3040 µM). It also gave an MFC (Candida albicans 4324) of 1000 µg/mL (≈ 6090 µM), an MIC (Candida albicans 4324) of 500 µg/mL (≈ 3040 µM) and an MFC (Candida albicans 4563) of 1000 µg/mL (≈ 6090 µM). It also gave an MIC (Candida albicans 4563) of 500 µg/mL (≈ 3040 µM), an MFC (Candida albicans 4576) of 1000 µg/mL (≈ 6090 µM) and an MIC (Candida albicans 4576) of 500 µg/mL (≈ 3040 µM). The MFC (Candida albicans 5112) was 1000 µg/mL (≈ 6090 µM), the MIC (Candida albicans 5112) was 500 µg/mL (≈ 3040 µM) and the MFC (Candida albicans SC5314) was 1000 µg/mL (≈ 6090 µM). For the same compound, the MIC (Candida albicans SC5314) was 500 µg/mL (≈ 3040 µM), the MFC [1, 6] was 1000 µg/mL (≈ 6090 µM) and the MIC [1, 6] was 500 µg/mL (≈ 3040 µM).
